Here are results for eleven compounds from patent US8859529B2, “Compounds for the treatment of inflammatory disorders” (Merck Sharp & Dohme Corp., priority 2008, dated 2014).

The subject of data set [1] is TNF-α production from human whole blood. The data set can be described thus: Inhibition of TNF-α production from human whole blood (hWBA). The class given is cell-based. The settings on record: human whole blood diluted 1:1, 1 h pre-incubation, LPS, 3.5 h, TNF-α by ELISA; N/A = Not Active. On the procedure: The compounds' ability to inhibit TACE activity can also be determined in human whole blood using the assay conditions described n Example 15 below.
Human whole blood was diluted 1:1 with serum free medium (RPMI, L-glutamine, Pen-Strep, HEPES) and incubated with a test compound in a final volume of 360 μl for 1 h at 37° C. Forty microliters of LPS (10 μg/mL) was then added. Supernatant was collected after 3.5 h incubation and the concentration of TNF-α was determined by ELISA (R&D Systems). The concentration of the test compound which inhibits 50% of the amount of TNF-α from the untreated control was determined.
In general terms: In an ELISA, binding on a coated surface is turned into a signal by an enzyme label.

The nature of data set [2]: Area under the curve determinations of plasma levels in rats (rrAUC). The class given is in vivo. The settings on record: rapid rat AUC of the drug (parent) in plasma; oral 10 mg/kg, fasted rats, blood 0.5-6 h post-dosing. How it is done:
To gain insight into the pharmacokinetic properties of the compounds of formula (I), plasma levels of the compounds in rats were determined according to the protocol described in Korfmacher, W. A,; Cox, K. A.; Ng, K. J.; Veals, J.; Hsieh, Y.; Wainhaus, S.; Broske, L; Prelusky, D.; Nomeir, A.; White, R. E. Rapid Commun. Mass Spectrorn, 2001, 15, 335. Briefly, rats, after an overnight fast, were dosed orally with the test compound at a dose of 10 mg/kg in a 5 mL/kg dose volume. Blood was collected at 0.5, 1, 2, 3, 4, and 6 h post-dosing. Mass spectrometry using high performance liquid chromatography was used to identify and measure the concentrations of the test compounds in the plasma at the various time points. The parent ion of each test compound was used to identify and quantitate the compounds in plasma.

`COc1ccc2c(c1)C(=O)N(C[C@@]1(c3cc4cnccc4o3)NC(=O)N(COC(=O)OCC3COCO3)C1=O)C2` (stereo partly shown) [Compound 63.1]: the IC50 (usually the midpoint of a concentration-inhibition curve) in data set [1] came to 449 nM. In data set [2], the “PK (rrAUC) parent” value stood at 0 µM·h.

`CCOC(=O)[C@H](C)OC(=O)OCN1C(=O)N[C@@](CN2Cc3ccc(OC)cc3C2=O)(c2cc3cnccc3o2)C1=O` [Compound 63.2] had an IC50 in data set [1] of 738 nM. Also, in data set [2], the “PK (rrAUC) parent” value amounted to 0 µM·h.

On to `COc1ccc2c(c1)C(=O)N(C[C@@]1(c3cc4cnccc4o3)NC(=O)N(COC(=O)OC3CCN(C)CC3)C1=O)C2` [Compound 63.3], for which the IC50 in data set [1] worked out at 1400 nM. Further, in data set [2], the “PK (rrAUC) parent” value was 13.539 µM·h.

As for `COc1ccc2c(c1)C(=O)N(C[C@@]1(c3cc4cnccc4o3)NC(=O)N(COC(=O)OCCN(C)C)C1=O)C2` [Compound 63.4], in data set [1], the IC50 amounted to 427 nM. Moreover, the “PK (rrAUC) parent” value in data set [2] was determined as 1.604 µM·h.

With `COc1ccc2c(c1F)C(=O)N(C[C@@]1(c3cc4cc5c(c(F)c4o3)C(=O)NC5)NC(=O)N(COC(=O)c3ccccc3)C1=O)C2` [Compound 64], the IC50 in data set [1] stood at 169 nM. For the same compound, the “PK (rrAUC) parent” value in data set [2] worked out at 5.393 µM·h.

`COc1ccc2c(c1)C(=O)N(C[C@@]1(c3cc4ncccc4o3)NC(=O)N(COC(=O)c3ccccc3OC(C)=O)C1=O)C2` [Compound 65]: the IC50 in data set [1] was 560 nM. Further, in data set [2], the “PK (rrAUC) parent” value was 4.426 µM·h.

Take `COc1ccc2c(c1)C(=O)N(C[C@@]1(c3cc4cnccc4o3)NC(=O)N(COC(=O)c3cccnc3)C1=O)C2` [Compound 67]: in data set [1], half-maximal inhibition (IC50) required 504 nM. Besides, the “PK (rrAUC) parent” value in data set [2] was 3.448 µM·h.

Compound `COc1ccc2c(c1)C(=O)N(C[C@@]1(c3cc4cnccc4o3)NC(=O)N(COC(=O)N3CCN(C)CC3)C1=O)C2` [Compound 68] registered an IC50 in data set [1] of 1310 nM. The “PK (rrAUC) parent” value in data set [2] was 13.539 µM·h.

In the case of `COc1ccc2c(c1)C(=O)N(C[C@@]1(c3cc4cnccc4o3)NC(=O)N(CN(C)C(=O)C(C)(C)C)C1=O)C2` [Compound 76.2], in data set [1], the IC50 is 754 nM. In addition, in data set [2], the “PK (rrAUC) parent” value turned out to be 0.31 µM·h.

As for `COc1ccc2c(c1)C(=O)N(C[C@]1(c3cc4cnccc4o3)C(=O)N(COC(=O)c3ccccc3OC(C)=O)C(=O)N1C(C)=O)C2` [Compound 83], inhibition in data set [1] was half-maximal at 931 nM (IC50). For the same compound, the “PK (rrAUC) parent” value in data set [2] amounted to 0 µM·h.

`COc1ccc2c(c1)C(=O)N(C[C@]1(c3cc4cnccc4o3)C(=O)N(COC(=O)OCC3COCO3)C(=O)N1C(=O)OCC1COCO1)C2` (stereo partly shown) [Compound 86] returned an IC50 in data set [1] of 5410 nM. The “PK (rrAUC) parent” value in data set [2] amounted to 0.056 µM·h.
